Type in all cases: cell-based, human
In experiment [1] the test system is BxPC3 and PANC-1 cells. Kind of experiment: Co-treatment with gemcitabine (GEM) and IAP inhibitors, BxPC3 and PANC-1. Conditions: GEM 24 h, then GEM + 15 μM IAP inhibitor 24 h; result in words. How it is done:
(§1) Cell lines and antibodies. […] (ATCC® TIB-196™), NCI-H929 [H929]
(§2) Pancreatic cancer cells co-treatment with gemcitabine (GEM) and IAP inhibitors. Pancreatic cancer cells were plated at 30×10^3 cells per well in 96-well plates. The next day, cells were treated with different concentrations of GEM. After 24-h incubation, media was removed and replenished with the same GEM concentration alone or with 15 μM of IAP inhibitors in serum-free media and cells were further incubated for 24 h.
(§3) Cell proliferation assay was determined using ATPlite 1Step Luminescence Assay System (PerkinElmer) according to the manufacturer's instructions, and luminescence was measured by VICTOR X5 microplate reader (PerkinElmer). Finally, data was plotted, and IC50 values were calculated using Prism GraphPad version 7. […] This experiment was repeated three times, and each concentration was tested in triplicate.

Experiment [2] has as its system MIA PaCa-2 cells. Nature of the experiment: Co-treatment with gemcitabine (GEM) and IAP inhibitors, MIA PaCa-2. The note with it: GEM 24 h, then GEM + 15 μM IAP inhibitor 24 h; result in words. How it is done: as §1, §2, §3
The subject of experiment [3] is H929 and L363 cells. Nature of the experiment: MTS assay, LCL161-sensitive multiple myeloma cell lines. The note with it: H929 and L363, 48 hr, 20 μM; result in words. How it is done:
as §1
MTS assay. MM.1S, U266, L363, H929, LP1, RPMI cells were seeded on 96-well plates in three replicates at 100 μL/well (2.5×10^5cells/ml) in growing medium and exposed to 20 μM) of different chemical compounds.

Molecules are shown by their SMILES. “Also recorded” adds a separate entry of the source.

For the compound `CN[C@@H](C)C(=O)N[C@@H](Cc1cc(C)c(C(F)(F)F)cc1F)C(=O)N1CCC[C@H]1C(=O)NC1CCc2c(F)cccc21` (stereo partly drawn) [Compound 31], the “effect in combination with gemcitabine, BxPC3 and PANC-1 (pancreatic cancer cell lines, FIG. 10E)” value in experiment [1] is “significantly sensitize; also recorded: able to significantly restore growth inhibition by gemcitabine; also recorded: significant synergism”. In experiment [2], the “effect in combination with gemcitabine, MIA PaCa-2” value was “modest significant additive effect”. Further, the “activity in LCL161-sensitive MM cell lines” value in experiment [3] is “approximately equipotent”.
